In patent US8772504B2, “Substituted benzoxazole, benzimidazole, oxazolopyridine and imidazopyridine derivatives as gamma secretase modulators” (Janssen Pharmaceuticals, Inc., priority 2009, dated 2014):

Legend:
[1] = system: Aβ42; assay: Screening for γ-secretase-modulating activity, Method 1: Aβ42 sandwich ELISA on SKNBE2 cell media; type: cell-based; details: SKNBE2 cells carrying APP 695 wild type
Outline: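 SKNBE2 cells expressing wild-type APP695 were treated with compound for 18 h in Ultraculture/1% glutamine. Secreted Aβ42 was quantified by sandwich ELISA (C-terminal capture, biotinylated 3D6, TMB, 450 nm), with WST-1 used as a toxicity check. IC50 was derived from 4-parameter fits of % inhibition or % of untreated control.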

[2] = system: Aβtotal; assay: In vivo efficacy Method 1: brain soluble Aβtotal by ELISA; parameters: species or system mouse; details: Table 4a, single oral dose, overnight fasted animals, sacrificed after 4 h, soluble fraction of brain homogenates
Outline: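 Overnight-fasted rodents or APP transgenic mice given a single oral dose in 20% Captisol or 20% hydroxypropyl β-cyclodextrin and sacrificed after 4 h. Right-hemisphere homogenate high-speed supernatant used: neutralized portion for Aβtotal, Oasis HLB-purified and concentrated eluate for Aβ42, both quantified by ELISA.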

[3] = Homo sapiens, Table 3a, 18 hours, XLfit, top/bottom fixed to 100 and 0, hill slope 1
[4] = Homo sapiens, Table 3b, non-linear regression of % of control, averaged IC50 values
[5] = Table 3a, 18 hours, XLfit, top/bottom fixed to 100 and 0, hill slope 1
[6] = Table 3b, non-linear regression of % of control, averaged IC50 values

| Structure (SMILES) | IC50 [1, 3] | IC50 [1, 4] | Aβtotal (% Ctrl) _Mean [2] | IC50 [1, 5] | IC50 [1, 6] |
| --- | --- | --- | --- | --- | --- |
| COc1cc(Nc2cccc3c2nc(-c2ccc(F)cc2)n3C)ccc1-n1cnc(C)c1 [Compound 1] | 0.022 µM | 0.021 µM | 100 % Ctrl |  |  |
| COc1cc(Nc2cccc3c2nc(-c2ccc(F)cc2)n3C)ccc1-n1cnc(C)n1 [Compound 4] | 0.023 µM | 0.022 µM | 92 % Ctrl |  |  |
| COc1cc(Nc2nccc3c2nc(-c2ccc(F)cc2)n3C)ccc1-n1cnc(C)c1 [Compound 8] | 0.022 µM | 0.022 µM | 91 % Ctrl |  |  |
| COc1nc(Nc2cccc3c2nc(-c2ccc(F)cc2)n3C)ccc1-n1cnc(C)c1 [Compound 15] | 0.006 µM | 0.008 µM | 83 % Ctrl |  |  |
| CCn1c(CC2CC2)nc2c(Nc3ccc(-n4cnc(C)c4)c(OC)c3)cccc21 [Compound 36] |  |  | 95 % Ctrl | 0.031 µM | 0.028 µM |
| COc1cc(Nc2cccc3c2nc(Oc2ccccc2)n3C)ccc1-n1cnc(C)c1 [Compound 61] |  |  | 97 % Ctrl | 0.063 µM | 0.059 µM |
| Cc1cn(-c2ccc(Nc3cccc4c3nc(-c3ccc(F)cc3)n4C)cc2F)cn1 [Compound 67] |  |  | 99 % Ctrl | 0.012 µM | 0.008 µM |
| Cc1ncn(-c2ccc(Nc3cccc4c3nc(-c3ccc(F)cc3)n4C(C)C)cc2)n1.Cl.Cl [Compound 73] |  |  | 97 % Ctrl | 0.096 µM | 0.089 µM |
| COc1cc(Nc2cccc3c2nc(-c2ccc(F)cc2)n3C(C)C)ccc1-n1cnc(C)n1.Cl.Cl [Compound 75] |  |  | 92 % Ctrl | 0.019 µM | 0.019 µM |
| Cc1ncn(-c2ccc(Nc3cccc4c3nc(-c3ccc(F)cc3)n4C(C)C)cn2)n1 [Compound 76] |  |  | 102 % Ctrl | 0.048 µM | 0.046 µM |
| COc1cc(Nc2nccc3c2nc(-c2ccc(F)cc2)n3C)ccc1-n1cnc(C)n1 [Compound 92] |  |  | 103 % Ctrl | 0.129 µM | 0.129 µM |
| COc1cc(Nc2cc(C(C)C)nc3c2nc(-c2ccc(F)cc2)n3C)ccc1-n1cnc(C)n1 [Compound 110] | 0.004 µM | 0.018 µM |  |  |  |
| COc1cc(-c2nc3c(Nc4ccc(-n5cnc(C)n5)c(OC)c4)nccc3n2C)ccc1Cl [Compound 114] | 0.01 µM | 0.054 µM |  |  |  |
| COc1nc(Nc2cc(F)cc3c2nc(-c2ccc(F)cc2)n3C)ccc1-n1cnc(C)c1 [Compound 115] |  |  | 93 % Ctrl | 0.002 µM |  |
| COc1cc(Nc2nccc3c2nc(-c2ccccc2C(F)(F)F)n3C)ccc1-n1cnc(C)n1 [Compound 130] |  |  | 94 % Ctrl |  | 0.069 µM |
| COc1cc(Nc2nc(C)cc3c2nc(-c2ccc(F)cc2)n3C)ccc1-n1cnc(C)n1 [Compound 164] |  |  | 97 % Ctrl |  | 0.032 µM |
